≈ marks a conversion by molar mass, not a printed value. Read-outs that look alike come from different tables or passages of the source.
Assays:
Trichomonas vaginalis = assay: Effect on growth of clinically isolated Trichomonas vaginalis in Trichomonas medium F (Neutral Red colour, microscopic observation); type: cell-based; conditions: for MIC: Trichomonas vaginalis, 72 hours culture, read-out: minimum growth inhibitory concentration (MIC); for Color: Neutral Red marker (yellow = acid production/growth); for Color / Result of microscopic observation: 37° C., 72 hours; for Result of microscopic observation: inverted microscope
Experimental: The effect on Trichomonas vaginalis was investigated for luliconazole of the compound represented by the general formula (1). That is, 5×10^6 cells of clinically isolated Trichomonas vaginalis were seeded in Trichomonas medium F (6.5 mL, contained in tube) produced by Fujiyakuhin Co., Ltd. containing Neutral Red as a marker, and the preculture was carried out for 72 hours (preculture). It was confirmed that Trichomonas grew, the acid was actively produced, and Neutral Red was changed to be yellow. After that, the preculture was added to Trichomonas medium F by every 100 μL in order to carry out the main culture, to which 0.5 mL of a test solution was added. In this situation, the number of protozoas in the solution of preculture was 1.5×10^5 cells/mL. Three series of test solutions were prepared, in which the luliconazole concentrations were 200 μM (final concentration: 35.2 μM), 100 μM (final concentration: 17.6 μM), and 50 μM (final concentration: 8.8 μM), as luliconazole dissolved in 10% methanol saline solution. 0.5 mL of vehicle was added as a control. As for the vehicle, 10% methanol saline solution (final concentration: 0 μM) was used. Stirring was sufficiently performed after the addition, followed by culturing at 37° C. for 72 hours. After the completion of the cultivation, the color was discriminated, and the state of protozoas was observed by using an inverted microscope.
The same or equivalent investigation as that of Example 1 was performed while changing luliconazole to lanoconazole.

Candida albicans = assay: In vitro antifungal activity on Candida albicans, broth microdilution method; type: cell-based; conditions: 48 hours, 80% growth inhibition, turbidity at 630 nm, read-out: minimum growth inhibitory concentration (MIC80)
Experimental: The minimum growth inhibitory concentration (MIC) was measured by means of the broth microdilution method (medicament ×2 dilution series) based on the use of […] medium (pH 7.0) buffered with 0.165 M morpholinopropanesulfonic acid. 100 μL of test microorganism yeast cells/sterilized physiological saline suspensions (1 to 5×10^3 cells/mL) and 100 μL of media previously added with respective compounds and medium not added with, compounds as a control were dispensed into respective wells of flat-bottom microculture plate.

[1] = tested on: Chlamydia trachomatis (D/UW3/Cx); assay: Anti-intracellular parasite action on Chlamydia trachomatis cultured in HeLa 229 host cells, fluorescent staining of inclusion bodies; type: cell-based
Experimental: The anti-intracellular parasite action was investigated by using Chlamydia trachomatis (D/UW3/Cx). That is, Chlamydia trachomatis was cultured in the presence of ×2 dilution series of 8 to 64 μg/ml of luliconazole by using HeLa 229 cells as the host. MEM added with 8% thermally inactivated FBS, to which 1 μg/ml of cyclohexamide was added, was used as the medium, and the culture was performed for 72 hours in 5% carbon dioxide gas at 37° C. After the culture, Chlamydia inclusion bodies were subjected to the fluorescent staining to be apple green with Chlamydia FA reagent “Seiken” (produced by DENKA SEIKEN Co., Ltd.), and the observation was performed by using a fluorescence microscope.

protozoa = conditions: stated as known; cited from earlier work
Chlamydia = conditions: stated as known; cited from earlier work

With `N#C/C(=C1/SCC(c2ccccc2Cl)S1)n1ccnc1` (centres unmarked) [Lanoconazole, 4-(2-chlorophenyl)-1,3-dithiolane-2-ylidene-1-imidazolyl acetonitrile] the MIC (Trichomonas vaginalis) was roughly 17.6 µM (≈ 5.63 µg/mL), the Color (Trichomonas vaginalis; final concentration 8.8 μM) was “yellow” and the Color (Trichomonas vaginalis; final concentration 17.6 μM) was “red”. For the same compound, the “Result of microscopic observation” value (Trichomonas vaginalis; final concentration 17.6 μM) was “protozoas were observed slightly”, the Color (Trichomonas vaginalis; final concentration 35.2 μM) was “red” and the “Result of microscopic observation” value (Trichomonas vaginalis; final concentration 35.2 μM) was “no protozoa was observed”. The “growth of Trichomonas” value (Trichomonas vaginalis; no concentration stated) was “inhibits the growth”, the MIC80 (Candida albicans; strain IFO0197, 35° C.) was 0.125 µg/mL (≈ 0.391 µM) and the MIC80 (Candida albicans; strain IFO0579, 35° C.) was 0.0625 µg/mL (≈ 0.195 µM). The MIC80 (Candida albicans; strain IFO1269, 35° C.) was 0.0625 µg/mL (≈ 0.195 µM) and the MIC80 (Candida albicans; strain TIMM3164, 35° C.) was 0.5 µg/mL (≈ 1.56 µM).

For `N#C/C(=C1/SC[C@@H](c2ccc(Cl)cc2Cl)S1)n1ccnc1` [Luliconazole, (R)-(−)-(E)-[4-(2,4-dichlorophenyl)-1,3-dithiolane-2-ylidene]-1-imidazolyl acetonitrile], the MIC (Trichomonas vaginalis) was roughly 8.8 µM (≈ 3.12 µg/mL), the “growth of Trichomonas” value (Trichomonas vaginalis; at 8.8 μM) was “inhibits the growth” and the Color (Trichomonas vaginalis; final concentration 8.8 μM) was “yellow”. The “Result of microscopic observation” value (Trichomonas vaginalis; final concentration 8.8 μM) was “protozoas were observed slightly”, the Color (Trichomonas vaginalis; final concentration 17.6 μM) was “red” and the “Result of microscopic observation” value (Trichomonas vaginalis; final concentration 17.6 μM) was “no protozoa was observed”. For the same compound, the Color (Trichomonas vaginalis; final concentration 35.2 μM) was “red”, the “Result of microscopic observation” value (Trichomonas vaginalis; final concentration 35.2 μM) was “no protozoa was observed” and the MIC80 (Candida albicans; strain IFO0197, 35° C.) was 0.0625 µg/mL (≈ 0.176 µM). For the same compound, the MIC80 (Candida albicans; strain IFO0579, 35° C.) was 0.0313 µg/mL (≈ 0.0883 µM), the MIC80 (Candida albicans; strain IFO1269, 35° C.) was 0.0625 µg/mL (≈ 0.176 µM) and the MIC80 (Candida albicans; strain TIMM3164, 35° C.) was 0.5 µg/mL (≈ 1.41 µM). The MIC ([1]; Chlamydia trachomatis, HeLa 229 host cells, 72 hours culture, read-out: MIC with respect to Chlamydia trachomatis) was 32 µg/mL (≈ 90.3 µM), the “observation result of Chlamydia inclusion bodies” value (from here on “observation result”) ([1]; treatment with 8 μg/mL, FIG. 1 panel (A)) was “dot-shaped Chlamydia inclusion bodies stained apple green were observed” and the “observation result” value ([1]; treatment with 16 μg/mL, FIG. 1 panel (B)) was “dot-shaped Chlamydia inclusion bodies stained apple green were observed”. For the same compound, the “observation result” value ([1]; treatment with 32 μg/mL, FIG. 1 panel (C)) was “No inclusion body was found”.

For `CCC(C)(C)c1ccc(CC(C)CN2C[C@@H](C)O[C@@H](C)C2)cc1` (some centres unmarked) [amorolfin], the antiprotozoal action (protozoa) is listed as “do not have” and the anticlamydial action (Chlamydia) is listed as “do not have”.

For `c1ccc(-c2ccc(C(c3ccccc3)n3ccnc3)cc2)cc1` (centres unmarked) [bifonazole], the antiprotozoal action (protozoa) is given as “do not have” and the anticlamydial action (Chlamydia) is given as “do not have”.

In the case of `CN(Cc1ccc(C(C)(C)C)cc1)Cc1cccc2ccccc12` [butenafine], the antiprotozoal action (protozoa) is listed as “do not have” and the anticlamydial action (Chlamydia) is listed as “do not have”.

For `Clc1ccc(COC(Cn2ccnc2)c2ccc(Cl)cc2Cl)c(Cl)c1` (centres unmarked) [miconazole], the antiprotozoal action (protozoa) is given as “do not have” and the anticlamydial action (Chlamydia) is given as “do not have”.

Reference: US20150352078A1, “PHARMACEUTICAL COMPOSITION FOR DISEASES CAUSED BY PATHOGENIC MICROORGANISMS SUCH AS CANDIDA” (POLA PHARMA INC., priority 2013, published 2015)
